Measurements as given in patent publication US20110112308A1 (NOVARTIS AG, priority 2006, published 2011).
Blank lines part the entries; values can stand above or below the molecule they belong to.

How the values were obtained:
[1] = Solution stability (HPLC); format: physicochemical; conditions: for stability characteristics, in words: both in solution and in the solid state; for Unstressed (% Area): unstressed baseline of the stability study
Procedure: (§1) All samples were prepared/diluted to a concentration of 0.2 mg/mL in methanol prior to analysis by HPLC. A freshly prepared sample of each salt was used as the reference standard for external standard calibration analysis.

[2] = pH of saturated solution or 1% suspension in water; format: physicochemical; conditions: In pH = 6.8 buffer
[3] = Solid-state stability; format: physicochemical; conditions: for Bulk stability (XRPD): 1 week
Procedure: as §1

[4] = pH of saturated solution or 1% suspension in water; format: physicochemical; conditions: room temperature
Procedure: pH Value: The pH at room temperature of a saturated solution or 1% suspension of the drug substance in water was recorded.

[5] = Stability of mixtures with excipients; format: physicochemical; conditions: for stability with all excipient mixtures tested, in words: after 2 weeks at 50° C./75% r.h.
Procedure: as §1

[6] = Solubility, 24-hour equilibration at room temperature; format: physicochemical; conditions: for Solubility: approx. at 25° C.; for approximate solubility in water as %: estimated from mg/mL assuming solution density 1 g/mL
Procedure: Aqueous Solubility: A carefully weighted amount (20-50 mg) of sample is dissolved in 1 ml of solvent with 24-hour equilibration at room temperature. The solubility was determined either gravimetrically or by UV-VIS spectrometry. The pH of the clear solution was also measured. However, the difficulty of determining salt solubilities in water should be stressed, since upon dissolution dissociation to the free form is possible, which affects both the solubility and the pH. It's not unlikely that attempts to make solutions of a salt at a concentration well below the reported solubility of the salt to be unsuccessful (for a full discussion see: M. Pudipeddi, A. T. M. Serajuddin, D. J. W. Grant, and P. H. Stahl in “Handbook of Pharmaceutical Salts Properties Selection and Use” page 27 and references therein).

[7] = Intrinsic dissolution rate, rotation disk method; format: physicochemical; conditions: for Intrinsic Dissolution Rate: 37° C., 200 r.p.m.
Procedure: Intrinsic Dissolution: […] […] Pellets of the other salts remained intact for at least several minutes enabling the determination of the intrinsic dissolution rate. Dissolution rate studies were performed using the rotation disk method ([…] Instrument). A single rotation speed of 200 r.p.m. was used to dissolve drug substance into a 500 mL vessel at 37° C. The solution was continuously pumped through a UV cell measurement and returned to the dissolution vessel.

[8] = Equilibration in solvents and buffers: form conversion
[9] = 2 mg/mL in 100 mM lactate buffer, pH 3.5
[10] = 2 mg/mL in methanol, 1 week at 50° C.
[11] = 2 mg/mL in water, 1 week at 50° C.
[12] = 2 mg/mL, 100 mM lactate buffer pH 3.5, 1 week at 50° C.
[13] = 2 mg/mL, 100 mM lactate buffer pH 3.5, 1 week at 50° C., external standard
[14] = 2% in 0.5% HPMC 4000, 1 day at RT
[15] = 2% in 0.5% Klucel HF, 1 day at RT
[16] = 2% in 0.8% Tween 80, 1 day at RT
[17] = 5% solution, 1 day at RT (diluted 1:100 in pH 6.8 buffer)
[18] = Bulk stability, 2 weeks, 50° C.
[19] = Bulk stability, 2 weeks, 50° C./20% water
[20] = Bulk stability, 2 weeks, 50° C./75% r.h.
[21] = Light study, 1200 kLux (300-800 nm)
[22] = Mixture 1: 50% PVP + 50% Crospovidone, 50° C./75% r.h., 2 weeks
[23] = Mixture 2: 50% Starch 1500 + 5% MCC 102, 50° C./75% r.h., 2 weeks
[24] = Mixture 3: 5% PVP + 5% Crospovidone + 10% Starch 1500 + 80% MCC 102, 50° C./75% r.h., 2 weeks
[25] = Mixture 4: 99% Lactose + 1% BHT/BHA, 50° C./75% r.h., 2 weeks
[26] = Mixture 5: 99% Mannitol + 1% BHT/BHA, 50° C./75% r.h., 2 weeks
[27] = Mixture 6: 50% Mannitol + 47% HPCLH21 + 1% BHT/BHA + 2% Magnesium Stearate, 50° C./75% r.h., 2 weeks
[28] = Mixture 7: 50% Cetyl Alcohol + 49% HPCLH21 + 1% Magnesium Stearate, 50° C./75% r.h., 2 weeks
[29] = Mixture 8: 100% PEG 3350, 50° C./75% r.h., 2 weeks
[30] = Water, free base pellet disintegrated, not true intrinsic rate

- pH of initial mixture [1, 9]: 3.52
- % DP (total degradation products) [1, 10]: 0.38 % area
- assay [1, 10]: [99.25]
- pH of initial mixture ([1]; 2 mg/mL in water): 5.93
- % DP (total degradation products) [1, 11]: 0.89 % area
- CL (appearance) [1, 11]: A↓*
- assay [1, 11]: [97.53]
- % DP (total degradation products) [1, 12]: 1.30 % area
- CL (appearance) [1, 12]: A↓*
- assay [1, 13]: [96.61]
- % DP (total degradation products) ([1]; 2% in 0.5% CMC, 1 day at RT): 0.46 % area
- CL (appearance) ([1]; 2% in 0.5% CMC, 1 day at RT): A↓↓
- assay ([1]; 2% in 0.5% CMC, 1 day at RT): [85.28]
- % DP (total degradation products) [1, 14]: 0.43 % area
- assay [1, 14]: [100.0]
- % DP (total degradation products) [1, 15]: 0.43 % area
- assay [1, 15]: [100.6]
- % DP (total degradation products) [1, 16]: 0.43 % area
- assay [1, 16]: [97.83]
- % DP (total degradation products) [1, 17]: 1.40 % area
- CL (appearance) [1, 17]: A↓
- assay [1, 17]: [98.91
- stability characteristics, in words [1]: very good stability
- Unstressed (% Area) [1]: 99.63% Area
- pH of saturated solution [2]: 5.67
- Bulk stability (XRPD) ([3]; 80° C.): no change
- Bulk stability (XRPD) ([3]; 80° C./75% r.h.): no change
- % DP (total degradation products) [3, 18]: 0.44 % area
- assay [3, 18]: [99.38]
- % DP (total degradation products) [3, 19]: 0.56 % area
- assay [3, 19]: [100.6]
- % DP (total degradation products) [3, 20]: 0.56 % area
- assay [3, 20]: [99.04]
- % DP (total degradation products) [3, 21]: 2.58 % area
- CL (appearance) [3, 21]: C (C = medium discoloration)
- assay [3, 21]: [98.15]
- pH of saturated solution [4]: 5.65
- % DP (total degradation products) [5, 22]: 0.6 % area
- % DS (drug substance) [5, 22]: 99.4 % area
- % DP (total degradation products) [5, 23]: 0.5 % area
- % DS (drug substance) [5, 23]: 99.5 % area
- % DP (total degradation products) [5, 24]: 0.6 % area
- % DS (drug substance) [5, 24]: 99.4 % area
- % DP (total degradation products) [5, 25]: 0.5 % area
- % DS (drug substance) [5, 25]: 99.5 % area
- % DP (total degradation products) [5, 26]: 0.5 % area
- % DS (drug substance) [5, 26]: 99.5 % area
- % DP (total degradation products) [5, 27]: 0.5 % area
- % DS (drug substance) [5, 27]: 99.5 % area
- % DP (total degradation products) [5, 28]: 0.5 % area
- % DS (drug substance) [5, 28]: 99.5 % area
- % DP (total degradation products) [5, 29]: 0.5 % area
- % DS (drug substance) [5, 29]: 99.5 % area
- % DP (total degradation products) ([5]; Standard, freshly prepared): 0.3 % area
- % DS (drug substance) ([5]; Standard, freshly prepared): 99.7 % area
- stability with all excipient mixtures tested, in words [5]: very good stability
- aqueous solubility [6]: 2400 µg/mL
- solubility in methanol, in words [6]: high
- solubility in other common / remaining organic solvents, in words [6]: considerable
- Solubility ([6]; 0.1N HCl): 200 µg/mL
- Solubility ([6]; 2-Propanol): 800 µg/mL
- Solubility ([6]; Acetone): 4500 µg/mL
- Solubility ([6]; Ethanol): 2100 µg/mL
- Solubility ([6]; Ethyl acetate): 6500 µg/mL
- Solubility ([6]; Methanol): 16600 µg/mL
- Solubility ([6]; Propylene glycol): 13200 µg/mL
- Solubility ([6]; Water): 2400 µg/mL
- approximate solubility in water as % [6]: approximately 0.3%
- Solubility ([6]; pH = 6.8 buffer): 700 µg/mL
- intrinsic dissolution (rate), in words [7]: good
- Intrinsic Dissolution Rate ([7]; HCl 0.1N): 0.13 mg min^−1 cm^−2
- Intrinsic Dissolution Rate [7, 30]: 0.68 mg min^−1 cm^−2
- polymorphs upon equilibration ([8]; ambient temperature): No additional polymorphs are detected
- conversion upon equilibration ([8]; phosphate buffer (pH=6.8)): converts to the free base
Structure (SMILES): Cc1[nH]c2ccccc2c1CCNCc1ccc(/C=C/C(=O)NO)cc1.Cl [HCl, hydrochloride salt of N-hydroxy-3-[4-[[[2-(2-methyl-1H-indol-3-yl)ethyl]amino]methyl]phenyl]-2E-2-propenamide]

- pH of initial mixture [1, 9]: 3.51
- % DP (total degradation products) [1, 10]: 0.83 % area
- assay [1, 10]: [100.7]
- pH of initial mixture ([1]; 2 mg/mL in water): 5.40
- % DP (total degradation products) [1, 11]: 0.80 % area
- CL (appearance) [1, 11]: A↓
- assay [1, 11]: [97.26]
- % DP (total degradation products) [1, 12]: 1.59 % area
- CL (appearance) [1, 12]: A↓*
- assay [1, 13]: [97.48]
- % DP (total degradation products) ([1]; 2% in 0.5% CMC, 1 day at RT): 0.58 % area
- CL (appearance) ([1]; 2% in 0.5% CMC, 1 day at RT): A↓↓
- assay ([1]; 2% in 0.5% CMC, 1 day at RT): [77.42]
- % DP (total degradation products) [1, 14]: 0.60 % area
- assay [1, 14]: [94.63]
- % DP (total degradation products) [1, 15]: 0.55 % area
- assay [1, 15]: [96.78]
- % DP (total degradation products) [1, 16]: 0.66 % area
- assay [1, 16]: [96.83]
- % DP (total degradation products) [1, 17]: 0.67 % area
- CL (appearance) [1, 17]: A↓
- assay [1, 17]: [97.92]
- stability characteristics, in words [1]: very good stability
- Unstressed (% Area) [1]: 99.48% Area
- pH of saturated solution [2]: 5.70
- Bulk stability (XRPD) ([3]; 80° C.): no change
- Bulk stability (XRPD) ([3]; 80° C./75% r.h.): no change
- % DP (total degradation products) [3, 18]: 0.71 % area
- assay [3, 18]: [102.2]
- % DP (total degradation products) [3, 19]: 0.71 % area
- assay [3, 19]: [101.1]
- % DP (total degradation products) [3, 20]: 0.58 % area
- assay [3, 20]: [100.0]
- % DP (total degradation products) [3, 21]: 3.02 % area
- CL (appearance) [3, 21]: D (D = strong discoloration)
- assay [3, 21]: [96.72]
- pH of saturated solution [4]: 5.54
- % DP (total degradation products) [5, 22]: 0.5 % area
- % DS (drug substance) [5, 22]: 99.5 % area
- % DP (total degradation products) [5, 23]: 0.3 % area
- % DS (drug substance) [5, 23]: 99.7 % area
- % DP (total degradation products) [5, 24]: 0.3 % area
- % DS (drug substance) [5, 24]: 99.7 % area
- % DP (total degradation products) [5, 25]: 0.3 % area
- % DS (drug substance) [5, 25]: 99.7 % area
- % DP (total degradation products) [5, 26]: 0.3 % area
- % DS (drug substance) [5, 26]: 99.7 % area
- % DP (total degradation products) [5, 27]: 0.3 % area
- % DS (drug substance) [5, 27]: 99.7 % area
- % DP (total degradation products) [5, 28]: 0.3 % area
- % DS (drug substance) [5, 28]: 99.7 % area
- % DP (total degradation products) [5, 29]: 0.4 % area
- % DS (drug substance) [5, 29]: 99.6 % area
- % DP (total degradation products) ([5]; Standard, freshly prepared): 0.2 % area
- % DS (drug substance) ([5]; Standard, freshly prepared): 99.8 % area
- stability with all excipient mixtures tested, in words [5]: very good stability
- aqueous solubility [6]: 2600 µg/mL
- solubility in methanol and ethanol, in words [6]: high
- solubility in other common / remaining organic solvents, in words [6]: considerable
- Solubility ([6]; 0.1N HCl): 700 µg/mL
- Solubility ([6]; 2-Propanol): 1600 µg/mL
- Solubility ([6]; Acetone): 3000 µg/mL
- Solubility ([6]; Ethanol): 7200 µg/mL
- Solubility ([6]; Ethyl acetate): 5600 µg/mL
- Solubility ([6]; Methanol): 57000 µg/mL
- Solubility ([6]; Propylene glycol): 32400 µg/mL
- Solubility ([6]; Water): 2600 µg/mL
- approximate solubility in water as % [6]: approximately 0.3%
- Solubility ([6]; pH = 6.8 buffer): 1500 µg/mL
- intrinsic dissolution (rate), in words [7]: good
- Intrinsic Dissolution Rate ([7]; HCl 0.1N): 1.00 mg min^−1 cm^−2
- Intrinsic Dissolution Rate [7, 30]: 0.32 mg min^−1 cm^−2
Structure (SMILES): Cc1[nH]c2ccccc2c1CCNCc1ccc(/C=C/C(=O)NO)cc1.O=C(O)/C=C\C(=O)O [Maleate, 1:1 maleate salt of N-hydroxy-3-[4-[[[2-(2-methyl-1H-indol-3-yl)ethyl]amino]methyl]phenyl]-2E-2-propenamide]
